From ChEMBL document CHEMBL1126489, “N1-sterically hindered 2H-imidazol-2-one angiotensin II receptor antagonists: The conversion of surmountable antagonists to insurmountable antagonists” (Bioorg Med Chem Lett, 1993)

Target: T1, Angiotensin II receptor (Rattus norvegicus, UniProt P29089+P25095+P35351)
T1 sequence (P29089 whole entry): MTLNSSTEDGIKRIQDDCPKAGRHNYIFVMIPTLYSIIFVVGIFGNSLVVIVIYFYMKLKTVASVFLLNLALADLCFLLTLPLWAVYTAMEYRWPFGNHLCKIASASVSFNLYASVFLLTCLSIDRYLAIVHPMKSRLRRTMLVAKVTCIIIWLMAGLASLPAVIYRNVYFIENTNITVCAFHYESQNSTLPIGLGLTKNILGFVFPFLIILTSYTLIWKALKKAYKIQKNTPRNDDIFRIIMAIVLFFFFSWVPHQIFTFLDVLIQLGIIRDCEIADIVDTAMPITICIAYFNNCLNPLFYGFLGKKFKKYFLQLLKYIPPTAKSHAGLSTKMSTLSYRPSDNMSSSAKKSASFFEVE
T1 sequence (P25095 whole entry): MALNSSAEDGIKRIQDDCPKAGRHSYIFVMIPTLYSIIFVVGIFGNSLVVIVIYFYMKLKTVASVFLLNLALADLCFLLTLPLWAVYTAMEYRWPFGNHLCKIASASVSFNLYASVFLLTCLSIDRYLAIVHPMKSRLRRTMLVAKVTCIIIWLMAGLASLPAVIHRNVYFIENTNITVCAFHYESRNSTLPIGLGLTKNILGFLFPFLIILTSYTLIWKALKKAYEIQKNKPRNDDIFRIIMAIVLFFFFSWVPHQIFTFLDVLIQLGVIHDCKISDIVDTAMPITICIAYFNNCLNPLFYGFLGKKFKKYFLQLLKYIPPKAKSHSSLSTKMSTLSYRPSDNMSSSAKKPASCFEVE
T1 sequence (P35351 whole entry): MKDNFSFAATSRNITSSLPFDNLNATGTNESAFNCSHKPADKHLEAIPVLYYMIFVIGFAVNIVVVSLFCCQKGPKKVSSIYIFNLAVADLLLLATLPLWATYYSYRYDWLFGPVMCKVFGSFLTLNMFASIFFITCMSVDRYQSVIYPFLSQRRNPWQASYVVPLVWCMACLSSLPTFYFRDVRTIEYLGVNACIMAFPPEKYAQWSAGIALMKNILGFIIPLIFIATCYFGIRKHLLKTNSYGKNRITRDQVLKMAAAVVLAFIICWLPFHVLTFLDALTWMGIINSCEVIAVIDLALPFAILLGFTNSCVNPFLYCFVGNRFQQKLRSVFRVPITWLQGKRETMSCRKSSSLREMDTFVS
Test: Inhibition of [125I]-AII binding to Angiotensin II receptor of rat uterine membrane

IC50 | Structure (SMILES)
4.5 nM | CCCCc1cn(-c2ccccc2CC)c(=O)n1Cc1ccc(-c2ccccc2-c2nn[nH]n2)nc1
34 nM | CCCCc1cn(-c2c(C(C)C)cccc2C(C)C)c(=O)n1Cc1ccc(-c2ccccc2-c2nn[nH]n2)nc1
5 nM | CCCCc1cn(-c2c(CC)cccc2CC)c(=O)n1Cc1ccc(-c2ccccc2-c2nn[nH]n2)nc1
14 nM | CCCCc1cn(-c2ccccc2C(C)C)c(=O)n1Cc1ccc(-c2ccccc2-c2nn[nH]n2)nc1
9.4 nM | CCCCc1cn(-c2ccccc2C)c(=O)n1Cc1ccc(-c2ccccc2-c2nn[nH]n2)nc1
19 nM | CCCCc1cn(-c2ccccc2C(C)(C)C)c(=O)n1Cc1ccc(-c2ccccc2-c2nn[nH]n2)nc1
5 nM | CCCCc1cn(-c2c(C)cccc2C)c(=O)n1Cc1ccc(-c2ccccc2-c2nn[nH]n2)nc1
5.6 nM | CCCCc1nc(CCCC)n(Cc2ccc(-c3ccccc3-c3nn[nH]n3)cc2)n1
45 nM | CCCCc1cn(-c2ccccc2)c(=O)n1Cc1ccc(-c2ccccc2-c2nn[nH]n2)nc1
1.3 nM | CCCCC1=NC2(CCCC2)C(=O)N1Cc1ccc(-c2ccccc2-c2nnn[nH]2)cc1 [IRBESARTAN]
12 nM | CCCCc1cn(CCCC)c(=O)n1Cc1ccc(-c2ccccc2-c2nn[nH]n2)cc1 [SC-51895]
6.5 nM | CCCCc1cn(CCCC)c(=O)n1Cc1ccc(-c2ccccc2-c2nn[nH]n2)nc1 [SC-52892]
4.9 nM | CCCCc1cn([C@H]2[C@H](C)CCC[C@@H]2C)c(=O)n1Cc1ccc(-c2ccccc2-c2nn[nH]n2)nc1 [SC-55634]
